How the values were obtained:
Ephrin type-A receptor 2 [1] = target: T1, Ephrin type-A receptor 2 (Homo sapiens, UniProt P29317); test: Inhibition of ephrin-A1-Fc binding to EphA2-Fc receptor (unknown origin) after 1 hr by ELISA
Ephrin type-A receptor 2 [2] = target: T1, Ephrin type-A receptor 2; test: Antagonist activity at EphA2 in human PC3 cells assessed as inhibition of ephrin-A1-Fc-stimulated EphA2 phosphorylation pretreated for 20 mins by sandwich ELISA; assay type: cell-based, PC-3
PC-3 = test: Cytotoxicity against human PC3 cells assessed as LDH release at 25 to 100 uM after 2 hrs by ELISA; assay type: cell-based; details: pc-3, 2 h
Ephrin type-B receptor 4 = target: T2, Ephrin type-B receptor 4 (Homo sapiens, UniProt P54760); test: Displacement of ephrin-B1-Fc from EphB4 receptor Fc ectodomain (unknown origin) after 1 hr by ELISA
T2 sequence (P54760 whole entry): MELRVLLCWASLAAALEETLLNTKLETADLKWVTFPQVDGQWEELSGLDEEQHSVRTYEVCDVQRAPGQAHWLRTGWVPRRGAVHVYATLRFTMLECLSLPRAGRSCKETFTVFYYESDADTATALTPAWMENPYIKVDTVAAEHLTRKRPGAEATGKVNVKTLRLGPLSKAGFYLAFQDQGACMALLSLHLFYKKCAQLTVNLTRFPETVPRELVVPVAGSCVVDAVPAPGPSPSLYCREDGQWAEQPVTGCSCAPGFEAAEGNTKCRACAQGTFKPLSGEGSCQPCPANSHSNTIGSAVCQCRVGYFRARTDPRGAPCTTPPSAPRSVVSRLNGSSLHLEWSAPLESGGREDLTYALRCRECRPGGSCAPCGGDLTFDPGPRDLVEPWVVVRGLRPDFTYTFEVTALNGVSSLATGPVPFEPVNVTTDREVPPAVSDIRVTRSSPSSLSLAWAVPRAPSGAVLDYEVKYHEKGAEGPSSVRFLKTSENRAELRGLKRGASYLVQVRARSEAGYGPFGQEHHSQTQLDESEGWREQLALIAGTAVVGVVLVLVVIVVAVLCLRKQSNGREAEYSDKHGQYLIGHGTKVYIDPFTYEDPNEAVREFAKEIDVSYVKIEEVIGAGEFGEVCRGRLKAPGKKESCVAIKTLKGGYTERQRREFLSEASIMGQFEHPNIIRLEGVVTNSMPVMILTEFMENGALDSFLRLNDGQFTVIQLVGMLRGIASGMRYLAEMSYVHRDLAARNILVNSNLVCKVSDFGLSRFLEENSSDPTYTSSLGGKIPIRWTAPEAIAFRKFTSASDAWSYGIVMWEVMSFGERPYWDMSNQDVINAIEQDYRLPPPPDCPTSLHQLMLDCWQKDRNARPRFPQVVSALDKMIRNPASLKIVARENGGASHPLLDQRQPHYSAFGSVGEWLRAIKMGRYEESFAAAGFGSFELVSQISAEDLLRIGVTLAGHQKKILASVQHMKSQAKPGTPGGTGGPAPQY

Ephrin type-B receptor 6 = target: T3, Ephrin type-B receptor 6 (Homo sapiens, UniProt O15197); test: Displacement of ephrin-B1-Fc from EphB6 receptor Fc ectodomain (unknown origin) after 1 hr by ELISA
T3 sequence (O15197 whole entry): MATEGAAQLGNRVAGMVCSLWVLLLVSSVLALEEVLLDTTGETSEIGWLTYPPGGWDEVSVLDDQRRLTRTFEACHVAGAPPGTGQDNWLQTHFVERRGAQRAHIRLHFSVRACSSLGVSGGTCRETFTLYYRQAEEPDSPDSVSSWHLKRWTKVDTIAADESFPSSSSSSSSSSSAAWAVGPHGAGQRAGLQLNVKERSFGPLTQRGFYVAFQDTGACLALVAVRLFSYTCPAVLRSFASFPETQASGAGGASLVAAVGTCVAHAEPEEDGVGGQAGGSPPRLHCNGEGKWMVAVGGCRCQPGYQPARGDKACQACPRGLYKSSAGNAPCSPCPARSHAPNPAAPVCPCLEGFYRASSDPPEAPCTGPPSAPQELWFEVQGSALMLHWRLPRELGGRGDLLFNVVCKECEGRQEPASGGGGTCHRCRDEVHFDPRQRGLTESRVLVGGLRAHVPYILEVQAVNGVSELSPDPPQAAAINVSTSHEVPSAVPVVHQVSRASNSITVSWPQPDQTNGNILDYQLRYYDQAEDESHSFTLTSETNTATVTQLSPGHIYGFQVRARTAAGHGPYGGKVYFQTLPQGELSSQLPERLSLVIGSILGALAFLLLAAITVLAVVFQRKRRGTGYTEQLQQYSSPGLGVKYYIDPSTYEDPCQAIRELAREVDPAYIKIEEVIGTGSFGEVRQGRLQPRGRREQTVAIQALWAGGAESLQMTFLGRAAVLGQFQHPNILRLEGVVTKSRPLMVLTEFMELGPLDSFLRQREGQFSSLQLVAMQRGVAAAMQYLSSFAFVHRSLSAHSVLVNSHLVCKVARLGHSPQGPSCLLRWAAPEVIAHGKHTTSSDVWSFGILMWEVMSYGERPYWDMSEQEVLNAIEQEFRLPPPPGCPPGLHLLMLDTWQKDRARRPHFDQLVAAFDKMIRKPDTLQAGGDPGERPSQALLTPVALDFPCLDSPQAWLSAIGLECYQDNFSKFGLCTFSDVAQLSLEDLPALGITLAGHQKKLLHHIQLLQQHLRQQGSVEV

Ephrin type-A receptor 8 = target: T4, Ephrin type-A receptor 8 (Homo sapiens, UniProt P29322); test: Displacement of ephrin-A1-Fc from EphA8 receptor Fc ectodomain (unknown origin) after 1 hr by ELISA
T4 sequence (P29322 whole entry): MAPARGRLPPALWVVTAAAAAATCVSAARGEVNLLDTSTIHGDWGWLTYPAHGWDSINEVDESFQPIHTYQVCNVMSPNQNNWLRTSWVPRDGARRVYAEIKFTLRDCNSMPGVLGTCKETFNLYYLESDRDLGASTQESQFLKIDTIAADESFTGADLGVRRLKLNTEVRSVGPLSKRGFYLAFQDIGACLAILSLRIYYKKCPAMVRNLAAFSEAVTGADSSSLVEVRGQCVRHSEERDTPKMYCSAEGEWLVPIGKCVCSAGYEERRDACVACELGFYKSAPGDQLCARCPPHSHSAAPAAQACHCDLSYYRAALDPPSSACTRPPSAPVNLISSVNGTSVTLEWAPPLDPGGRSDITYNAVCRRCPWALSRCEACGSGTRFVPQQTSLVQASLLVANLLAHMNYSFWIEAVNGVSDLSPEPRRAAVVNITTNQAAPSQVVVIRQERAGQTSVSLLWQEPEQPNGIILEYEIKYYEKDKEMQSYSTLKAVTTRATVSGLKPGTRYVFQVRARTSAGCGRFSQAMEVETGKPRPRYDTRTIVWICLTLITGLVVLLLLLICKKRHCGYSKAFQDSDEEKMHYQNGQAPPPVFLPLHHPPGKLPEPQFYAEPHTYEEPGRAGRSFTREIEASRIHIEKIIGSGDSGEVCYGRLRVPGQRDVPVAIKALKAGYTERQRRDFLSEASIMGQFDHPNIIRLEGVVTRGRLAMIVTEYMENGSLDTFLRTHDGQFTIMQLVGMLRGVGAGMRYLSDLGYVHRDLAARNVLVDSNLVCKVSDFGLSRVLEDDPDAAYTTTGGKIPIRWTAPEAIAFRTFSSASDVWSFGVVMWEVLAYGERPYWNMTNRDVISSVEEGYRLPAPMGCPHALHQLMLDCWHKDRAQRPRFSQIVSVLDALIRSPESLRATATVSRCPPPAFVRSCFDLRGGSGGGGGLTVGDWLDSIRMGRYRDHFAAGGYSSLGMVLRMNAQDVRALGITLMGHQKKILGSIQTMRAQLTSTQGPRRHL

Ephrin type-B receptor 1 = target: T5, Ephrin type-B receptor 1 (Homo sapiens, UniProt P54762); test: Displacement of ephrin-B1-Fc from EphB1 receptor Fc ectodomain (unknown origin) after 1 hr by ELISA
T5 sequence (P54762 whole entry): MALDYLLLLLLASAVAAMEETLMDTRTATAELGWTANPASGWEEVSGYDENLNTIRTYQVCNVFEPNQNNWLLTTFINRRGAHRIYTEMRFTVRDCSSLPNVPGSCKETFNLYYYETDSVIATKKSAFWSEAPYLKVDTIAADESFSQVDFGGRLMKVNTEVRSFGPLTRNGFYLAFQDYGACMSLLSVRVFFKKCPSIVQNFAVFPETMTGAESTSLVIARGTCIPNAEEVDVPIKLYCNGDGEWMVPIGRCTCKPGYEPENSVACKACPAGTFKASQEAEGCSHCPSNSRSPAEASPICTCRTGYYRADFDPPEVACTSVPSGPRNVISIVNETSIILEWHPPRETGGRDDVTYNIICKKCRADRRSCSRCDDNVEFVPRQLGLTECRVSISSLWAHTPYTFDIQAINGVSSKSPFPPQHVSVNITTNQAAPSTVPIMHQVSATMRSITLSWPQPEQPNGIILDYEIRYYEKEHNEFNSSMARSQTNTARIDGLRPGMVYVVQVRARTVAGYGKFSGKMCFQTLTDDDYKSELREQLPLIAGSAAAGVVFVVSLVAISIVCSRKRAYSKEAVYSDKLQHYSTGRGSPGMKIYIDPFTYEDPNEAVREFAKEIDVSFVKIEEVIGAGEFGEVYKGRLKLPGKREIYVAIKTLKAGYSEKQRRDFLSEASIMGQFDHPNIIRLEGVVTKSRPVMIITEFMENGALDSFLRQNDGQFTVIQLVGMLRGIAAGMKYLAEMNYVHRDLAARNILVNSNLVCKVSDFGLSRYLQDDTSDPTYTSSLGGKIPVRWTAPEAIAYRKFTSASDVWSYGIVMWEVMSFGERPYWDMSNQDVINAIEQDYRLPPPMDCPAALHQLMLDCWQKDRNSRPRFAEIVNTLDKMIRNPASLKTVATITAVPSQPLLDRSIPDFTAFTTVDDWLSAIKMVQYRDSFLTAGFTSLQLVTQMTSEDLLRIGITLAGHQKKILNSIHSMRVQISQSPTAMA

Ephrin type-A receptor 6 = target: T6, Ephrin type-A receptor 6 (Homo sapiens, UniProt Q9UF33); test: Displacement of ephrin-A1-Fc from EphA6 receptor Fc ectodomain (unknown origin) after 1 hr by ELISA
T6 sequence (Q9UF33 whole entry): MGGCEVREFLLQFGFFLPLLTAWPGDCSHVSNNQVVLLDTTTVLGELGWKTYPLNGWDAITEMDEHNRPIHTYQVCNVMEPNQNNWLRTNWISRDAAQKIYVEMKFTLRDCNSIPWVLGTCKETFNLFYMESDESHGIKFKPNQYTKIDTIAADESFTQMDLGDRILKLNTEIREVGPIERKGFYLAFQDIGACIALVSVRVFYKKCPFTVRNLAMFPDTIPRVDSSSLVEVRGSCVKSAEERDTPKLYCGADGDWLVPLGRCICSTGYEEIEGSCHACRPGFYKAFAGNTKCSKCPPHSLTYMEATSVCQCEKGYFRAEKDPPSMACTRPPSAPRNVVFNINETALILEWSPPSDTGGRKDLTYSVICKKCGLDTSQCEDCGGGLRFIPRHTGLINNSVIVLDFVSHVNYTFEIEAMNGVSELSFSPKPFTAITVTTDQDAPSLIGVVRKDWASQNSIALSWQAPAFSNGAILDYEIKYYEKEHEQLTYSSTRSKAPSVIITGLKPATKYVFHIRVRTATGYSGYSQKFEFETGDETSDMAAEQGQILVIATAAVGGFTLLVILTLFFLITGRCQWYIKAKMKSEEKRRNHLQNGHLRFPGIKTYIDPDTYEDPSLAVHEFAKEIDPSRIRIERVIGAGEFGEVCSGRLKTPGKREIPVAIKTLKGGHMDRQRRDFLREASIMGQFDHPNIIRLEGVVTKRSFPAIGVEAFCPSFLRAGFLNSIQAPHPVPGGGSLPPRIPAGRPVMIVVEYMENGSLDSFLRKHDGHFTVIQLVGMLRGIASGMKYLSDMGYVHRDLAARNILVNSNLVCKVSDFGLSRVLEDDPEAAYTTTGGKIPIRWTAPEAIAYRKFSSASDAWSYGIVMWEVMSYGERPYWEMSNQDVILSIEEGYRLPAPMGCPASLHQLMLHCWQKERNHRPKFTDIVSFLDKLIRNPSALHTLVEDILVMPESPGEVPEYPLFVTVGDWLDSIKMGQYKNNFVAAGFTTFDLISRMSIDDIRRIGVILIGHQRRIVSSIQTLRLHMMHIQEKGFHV

Ephrin type-A receptor 7 = Ephrin type-A receptor 7 (Homo sapiens, UniProt Q15375); test: Displacement of ephrin-A1-Fc from EphA7 receptor Fc ectodomain (unknown origin) after 1 hr by ELISA
Sequence of Ephrin type-A receptor 7 (Q15375 whole entry, the tested form may be a part): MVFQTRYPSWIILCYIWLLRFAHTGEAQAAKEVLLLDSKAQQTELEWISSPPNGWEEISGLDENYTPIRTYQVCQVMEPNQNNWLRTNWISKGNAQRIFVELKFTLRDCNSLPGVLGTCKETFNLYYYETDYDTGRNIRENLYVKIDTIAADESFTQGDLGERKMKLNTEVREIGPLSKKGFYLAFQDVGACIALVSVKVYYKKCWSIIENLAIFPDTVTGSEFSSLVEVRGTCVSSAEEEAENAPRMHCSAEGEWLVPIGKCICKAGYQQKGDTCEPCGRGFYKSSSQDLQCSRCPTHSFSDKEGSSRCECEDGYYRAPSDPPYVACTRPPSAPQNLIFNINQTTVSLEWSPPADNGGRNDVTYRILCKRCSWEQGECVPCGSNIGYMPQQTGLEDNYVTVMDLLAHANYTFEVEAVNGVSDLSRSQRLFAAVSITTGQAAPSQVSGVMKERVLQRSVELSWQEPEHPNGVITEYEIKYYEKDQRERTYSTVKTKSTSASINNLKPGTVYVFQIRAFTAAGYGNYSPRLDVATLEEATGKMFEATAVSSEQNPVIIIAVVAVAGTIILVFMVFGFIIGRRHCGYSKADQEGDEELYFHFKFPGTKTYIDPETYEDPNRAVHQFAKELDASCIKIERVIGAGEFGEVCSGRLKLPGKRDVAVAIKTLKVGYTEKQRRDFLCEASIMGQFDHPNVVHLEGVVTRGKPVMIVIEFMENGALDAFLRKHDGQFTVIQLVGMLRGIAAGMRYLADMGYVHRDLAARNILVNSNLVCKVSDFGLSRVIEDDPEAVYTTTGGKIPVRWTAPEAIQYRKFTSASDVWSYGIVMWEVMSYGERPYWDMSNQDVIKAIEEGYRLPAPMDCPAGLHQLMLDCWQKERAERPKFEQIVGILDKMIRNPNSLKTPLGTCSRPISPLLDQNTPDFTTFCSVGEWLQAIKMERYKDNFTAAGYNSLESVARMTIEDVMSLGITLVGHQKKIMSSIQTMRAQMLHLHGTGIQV

Ephrin type-A receptor 5 = Ephrin type-A receptor 5 (Homo sapiens, UniProt P54756); test: Displacement of ephrin-A1-Fc from EphA5 receptor Fc ectodomain (unknown origin) after 1 hr by ELISA
Sequence of Ephrin type-A receptor 5 (P54756 whole entry, the tested form may be a part): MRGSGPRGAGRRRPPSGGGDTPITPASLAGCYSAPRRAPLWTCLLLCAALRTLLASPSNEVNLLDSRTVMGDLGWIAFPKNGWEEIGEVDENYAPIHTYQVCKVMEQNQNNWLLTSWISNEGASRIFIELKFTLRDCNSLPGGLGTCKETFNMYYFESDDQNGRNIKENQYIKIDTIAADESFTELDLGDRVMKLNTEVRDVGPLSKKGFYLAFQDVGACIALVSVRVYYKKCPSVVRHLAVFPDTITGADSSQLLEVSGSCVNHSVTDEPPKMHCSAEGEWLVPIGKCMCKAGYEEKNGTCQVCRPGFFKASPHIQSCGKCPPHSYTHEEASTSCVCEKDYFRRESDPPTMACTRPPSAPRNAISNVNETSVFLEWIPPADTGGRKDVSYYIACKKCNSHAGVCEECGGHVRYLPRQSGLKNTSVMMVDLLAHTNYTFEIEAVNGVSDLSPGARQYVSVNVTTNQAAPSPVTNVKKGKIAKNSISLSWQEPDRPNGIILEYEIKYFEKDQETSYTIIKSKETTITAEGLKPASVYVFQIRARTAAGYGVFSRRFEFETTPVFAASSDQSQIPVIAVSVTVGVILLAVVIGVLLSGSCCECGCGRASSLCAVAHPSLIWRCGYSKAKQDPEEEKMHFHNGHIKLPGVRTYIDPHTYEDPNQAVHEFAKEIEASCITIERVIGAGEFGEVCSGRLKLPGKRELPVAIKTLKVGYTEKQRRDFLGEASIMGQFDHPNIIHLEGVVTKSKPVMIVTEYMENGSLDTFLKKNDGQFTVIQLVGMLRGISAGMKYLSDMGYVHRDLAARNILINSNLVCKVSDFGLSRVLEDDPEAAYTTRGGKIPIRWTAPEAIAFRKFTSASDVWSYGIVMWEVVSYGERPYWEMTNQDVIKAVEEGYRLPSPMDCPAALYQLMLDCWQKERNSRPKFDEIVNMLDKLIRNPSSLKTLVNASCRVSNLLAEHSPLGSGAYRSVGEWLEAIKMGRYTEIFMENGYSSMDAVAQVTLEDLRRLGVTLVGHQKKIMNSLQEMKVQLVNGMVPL

Ephrin type-A receptor 4 = Ephrin type-A receptor 4 (Homo sapiens, UniProt P54764); test: Displacement of ephrin-A1-Fc from EphA4 receptor Fc ectodomain (unknown origin) after 1 hr by ELISA
Sequence of Ephrin type-A receptor 4 (P54764 whole entry, the tested form may be a part): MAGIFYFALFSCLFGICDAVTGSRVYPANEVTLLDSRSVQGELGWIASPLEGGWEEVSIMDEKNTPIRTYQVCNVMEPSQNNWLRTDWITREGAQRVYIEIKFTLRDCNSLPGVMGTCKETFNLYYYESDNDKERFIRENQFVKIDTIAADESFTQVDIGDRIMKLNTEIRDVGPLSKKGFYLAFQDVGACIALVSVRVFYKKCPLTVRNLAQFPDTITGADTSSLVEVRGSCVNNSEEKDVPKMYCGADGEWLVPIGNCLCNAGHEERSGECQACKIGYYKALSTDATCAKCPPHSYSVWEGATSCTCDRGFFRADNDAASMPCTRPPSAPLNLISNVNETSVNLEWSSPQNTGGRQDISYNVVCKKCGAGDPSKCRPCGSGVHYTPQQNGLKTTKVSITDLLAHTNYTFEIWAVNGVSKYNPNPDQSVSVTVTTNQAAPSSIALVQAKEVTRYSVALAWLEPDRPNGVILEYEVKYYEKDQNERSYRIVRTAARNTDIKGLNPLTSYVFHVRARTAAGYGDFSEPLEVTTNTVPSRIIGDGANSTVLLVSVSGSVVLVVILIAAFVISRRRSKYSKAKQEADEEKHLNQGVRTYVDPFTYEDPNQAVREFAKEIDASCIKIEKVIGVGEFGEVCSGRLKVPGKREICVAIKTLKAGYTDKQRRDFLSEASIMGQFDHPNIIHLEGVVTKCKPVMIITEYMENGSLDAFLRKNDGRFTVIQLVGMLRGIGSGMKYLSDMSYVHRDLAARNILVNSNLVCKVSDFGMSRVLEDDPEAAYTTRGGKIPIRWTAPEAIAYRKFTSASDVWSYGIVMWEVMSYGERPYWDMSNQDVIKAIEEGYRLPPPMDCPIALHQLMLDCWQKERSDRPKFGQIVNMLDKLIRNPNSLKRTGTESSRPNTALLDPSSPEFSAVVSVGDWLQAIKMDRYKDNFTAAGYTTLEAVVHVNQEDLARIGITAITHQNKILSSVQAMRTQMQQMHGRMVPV

T1 sequence (P29317 whole entry): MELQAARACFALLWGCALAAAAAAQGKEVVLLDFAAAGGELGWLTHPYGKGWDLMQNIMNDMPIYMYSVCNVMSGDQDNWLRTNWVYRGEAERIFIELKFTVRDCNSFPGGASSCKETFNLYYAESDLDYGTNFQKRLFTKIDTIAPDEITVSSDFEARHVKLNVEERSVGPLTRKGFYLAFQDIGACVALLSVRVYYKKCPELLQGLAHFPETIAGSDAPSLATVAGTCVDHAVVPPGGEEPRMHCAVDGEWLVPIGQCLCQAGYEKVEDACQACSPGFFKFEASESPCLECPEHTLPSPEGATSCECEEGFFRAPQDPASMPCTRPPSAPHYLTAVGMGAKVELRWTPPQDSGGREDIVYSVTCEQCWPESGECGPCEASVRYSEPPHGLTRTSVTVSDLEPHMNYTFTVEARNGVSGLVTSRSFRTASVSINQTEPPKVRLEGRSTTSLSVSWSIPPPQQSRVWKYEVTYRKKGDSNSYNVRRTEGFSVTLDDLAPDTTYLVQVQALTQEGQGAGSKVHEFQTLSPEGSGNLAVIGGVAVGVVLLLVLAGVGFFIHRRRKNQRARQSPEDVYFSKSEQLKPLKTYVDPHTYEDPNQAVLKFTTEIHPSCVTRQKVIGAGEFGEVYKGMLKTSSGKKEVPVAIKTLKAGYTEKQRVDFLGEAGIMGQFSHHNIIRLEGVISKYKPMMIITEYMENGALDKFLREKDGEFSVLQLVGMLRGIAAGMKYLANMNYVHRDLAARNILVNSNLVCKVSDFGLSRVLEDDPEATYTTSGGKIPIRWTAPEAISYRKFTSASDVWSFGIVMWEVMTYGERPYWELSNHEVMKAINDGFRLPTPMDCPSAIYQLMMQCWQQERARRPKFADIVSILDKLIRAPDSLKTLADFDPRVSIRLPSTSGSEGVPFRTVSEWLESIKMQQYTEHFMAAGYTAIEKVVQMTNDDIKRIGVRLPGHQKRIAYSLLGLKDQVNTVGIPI

SMILES: C[C@H](CCC(=O)N[C@H](CC(N)=O)C(=O)O)[C@H]1CC[C@H]2[C@@H]3CC[C@@H]4C[C@H](O)CC[C@]4(C)[C@H]3CC[C@]12C
- IC50 (Ephrin type-A receptor 2 [1]): > 316 µM

SMILES: C[C@H](CCC(=O)NCC(=O)O)[C@H]1CC[C@H]2[C@@H]3CC[C@@H]4C[C@H](O)CC[C@]4(C)[C@H]3CC[C@]12C [LITHOGLYCOCHOLATE]
- IC50 (Ephrin type-A receptor 2 [2]): 138 µM
- IC50 (Ephrin type-A receptor 2 [1]): 49 µM

SMILES: C[C@H](CCC(=O)N[C@@H](Cc1c[nH]c2ccccc12)C(=O)O)[C@H]1CC[C@H]2[C@@H]3CC[C@@H]4C[C@H](O)CC[C@]4(C)[C@H]3CC[C@]12C
- Activity (PC-3): Non-toxic
- IC50 (Ephrin type-B receptor 4): 4.4 µM
- IC50 (Ephrin type-B receptor 6): 5.8 µM
- IC50 (Ephrin type-A receptor 8): 1.5 µM
- IC50 (Ephrin type-B receptor 1): 3.8 µM
- IC50 (Ephrin type-A receptor 6): 1.5 µM
- IC50 (Ephrin type-A receptor 7): 2.1 µM
- IC50 (Ephrin type-A receptor 5): 2.4 µM
- IC50 (Ephrin type-A receptor 4): 2.7 µM

SMILES: C[C@H](CCC(=O)N[C@@H](CC(=O)O)C(=O)O)[C@H]1CC[C@H]2[C@@H]3CC[C@@H]4C[C@H](O)CC[C@]4(C)[C@H]3CC[C@]12C
- IC50 (Ephrin type-A receptor 2 [1]): > 316 µM

SMILES: C[C@H](CCC(=O)N[C@@H](CC(N)=O)C(=O)O)[C@H]1CC[C@H]2[C@@H]3CC[C@@H]4C[C@H](O)CC[C@]4(C)[C@H]3CC[C@]12C
- IC50 (Ephrin type-A receptor 2 [1]): > 316 µM

SMILES: CC(=O)CNC(=O)CC[C@@H](C)[C@H]1CC[C@H]2[C@@H]3CC[C@@H]4C[C@H](O)CC[C@]4(C)[C@H]3CC[C@]12C
- IC50 (Ephrin type-A receptor 2 [1]): > 316 µM

SMILES: C[C@H](CCC(=O)N[C@H](CC(=O)O)C(=O)O)[C@H]1CC[C@H]2[C@@H]3CC[C@@H]4C[C@H](O)CC[C@]4(C)[C@H]3CC[C@]12C
- IC50 (Ephrin type-A receptor 2 [1]): > 316 µM

From ChEMBL document CHEMBL2321799 (J Med Chem, 2013)
